Holding throughout (experiment): NCI tumour cell line growth inhibition, 48 h
Test [1] deals with SNB-19 CNS.
Test [2] concerns HOP-92 NSCLC.
The subject of test [3] is SF-539 CNS.
For test [4], the system named is UACC-257 melanoma.
Test [5] deals with SK-OV-3 ovarian.
For test [6], the system named is LXFL 529 NSCLC.
For test [7], the system named is M19-MEL melanoma.
Test [8] has as its system HOP-18 NSCLC.
The test system of test [9] is HS 578T breast.
Test [10] has as its system PC-3 prostate.

Where “and” joins values, the source holds several entries; their conditions need not be identical. Identical values can stand only once.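 Growth conditions: 96-well plates. Treatment: test compound, 48 hours, 5 concentrations. Analysis: linear interpolation between bracketing concentrations; unreached endpoints set to highest concentration. GI50: concentration for 50% inhibition of growth. TGI: total growth inhibition.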

In the case of `CC12C/C(=C\c3ccccc3)C(=O)C3C1CCCC32`, the TGI in test [1], in [2], in [3], in [4], in test [5] and in test [6] was greater than 100 µM throughout. For the same molecule, the TGI in test [7] and in [8] was greater than 100 µM each time.

Regarding `O=c1/c(=C/c2ccccc2[N+](=O)[O-])sc2nnc(-c3ccco3)n12`, the TGI was 56.3 µM in [1]; greater than 100 µM in test [2]; 33.9 µM in [3]; greater than 100 µM in test [4]; greater than 100 µM in test [5]; 34.5 µM in [6]. Further, the TGI in [7] stood at 38.3 µM; in test [8] it was 57.8 µM.

Consider `O=C1c2ccccc2C(=O)N1CCn1ccc(NC(c2ccccc2)(c2ccccc2)c2ccccc2)nc1=O`, for which the TGI was 86.1 µM in test [1]; 53.3 µM in test [2]; 30.6 µM in [3]; 34.7 µM in test [4]; greater than 100 µM in [5]; greater than 100 µM in [6]. In addition, the TGI was 32.6 µM in [7] and 42.6 µM in test [8].

As to `COc1cccc2c1C(=O)c1c(O)c3c(c(O)c1C2=O)C[C@@](O)(C(=O)CO)C[C@@H]3OC1CC(N)CC(C)O1` (some centres undefined), the GI50 in test [1] is 0.0391 µM and 0.0413 µM; in test [2], 0.0638 µM; in test [3], 0.0189 µM and 0.0471 µM; in test [9] it was 0.0504 µM and 0.119 µM; in test [4], 0.103 µM; in test [5], 0.0837 µM. Also, the GI50 is 0.0558 µM in [10], 0.0363 µM in [7] and 0.0713 µM in test [8]. In addition, the TGI in test [1] was 2.31 µM and 3.06 µM; in test [2], 0.275 µM and 0.353 µM; in [3], 0.194 µM and 0.211 µM; in test [4], 0.33 µM and 0.195 µM; in test [5], 0.94 µM and 3.52 µM; in test [10] it was 0.33 µM and 0.246 µM. The TGI in test [6] was 0.951 µM; in [7], 0.186 µM and 0.174 µM; in [8], 0.906 µM and 0.445 µM.

Regarding `Cc1cn2c(=O)c3ncn(C4OC(CO)C(O)C4O)c3n(C)c2n1` (centres undefined), the TGI in test [1], in test [2], in test [3], in test [4], in test [5] and in [6] was greater than 100 µM throughout. The TGI in test [7] and in test [8] was greater than 100 µM throughout.

Take `Nc1nc(Cl)cc(NCCCCCCCCNc2cc(Cl)nc(N)n2)n1`: the TGI in test [1] was greater than 100 µM; in test [2], 85.4 µM; in test [3], greater than 100 µM; in [4], greater than 100 µM; in test [5], greater than 100 µM; in test [6], 27.1 µM. The TGI in test [7] and in test [8] was greater than 100 µM in each case.

For `CC(=O)CCn1ncc(Cl)c(Cl)c1=O`, the TGI in test [1] stood at 32.9 µM; in [2], 34.1 µM; in [3], 38.5 µM; in [4], 31.5 µM; in test [6], 27.3 µM; in test [7] it was 17.2 µM. In test [8], the TGI stood at 30.5 µM.

Turning to `O=C(Nc1ccn(CCO)c(=O)n1)c1ccccc1`, the TGI in [2], in test [3], in test [4], in [5], in test [6] and in test [7] was greater than 100 µM throughout. The same molecule had a TGI in test [8] greater than 100 µM.

In the case of `O=C(CCN(C(=O)O)S(=O)(=O)c1ccc(NC(=O)c2ccccc2)cc1)Nc1ccccc1`, the TGI in test [1] was greater than 100 µM; in [2], greater than 100 µM; in [3], greater than 100 µM; in test [4], greater than 86.3 µM; in [5], greater than 100 µM; in [6] it was greater than 100 µM. Besides, the TGI in [7] and in test [8] was greater than 100 µM throughout.

As to `COc1ccc2occ(CCC(=O)O)c2c1`, the TGI in [1], in test [2], in test [3], in test [4], in [5] and in test [6] was greater than 100 µM in each case. Further, the TGI in test [7] and in [8] was greater than 100 µM throughout.

In the case of `[N-]=[N+]=NC1(Cc2ccccc2)C(=O)c2cccc3c2N(CCC3)C1=O` (centres undefined), the TGI in [2], in test [3], in [4], in test [5], in test [6] and in test [7] was greater than 100 µM in each case. In test [8], the TGI is greater than 100 µM.

Take `CCOC(=O)c1cnc2c(ccc3[nH]n(C)nc32)c1=O`: the TGI in test [1], in test [2], in test [4], in [5], in test [6] and in test [7] was greater than 100 µM throughout. The same molecule gave a TGI in test [8] greater than 100 µM.

`Clc1ccc2c(c1)[nH]c1c2nc2ccccn21`: the TGI was 58.6 µM and 35.3 µM in test [1]; 50.3 µM and 30.6 µM in test [3]; 89.4 µM and 32.3 µM in test [4]; > 100 µM and 63.7 µM in [5]; > 100 µM and 30 µM in test [6]; > 100 µM and 47.6 µM in [7]. Also, in test [8], the TGI was greater than 100 µM. The GI50 is 35.9 µM and 16.2 µM in test [6]; 42.3 µM and 20.1 µM in test [7]; 41.9 µM in test [8].

As to `CCCCOC(=O)CNC(=O)OC/C=C/C#CC#C/C=C/COC(=O)NCC(=O)OCCCC`, the GI50 in [1], in test [2], in test [3], in test [5], in test [6] and in test [7] was greater than 100 µM throughout. Moreover, the TGI in test [1] is greater than 100 µM; in [2], greater than 100 µM; in [3] it was greater than 100 µM; in test [4] it was greater than 10 µM; in test [5], greater than 100 µM; in [6], greater than 100 µM. Also, the TGI in test [7] is greater than 100 µM; in test [8], greater than 10 µM.

On to `Cc1ccc(S(=O)(=O)N(C=O)N=C2CCN(Cc3ccccc3)CC2)cc1`, for which the TGI in test [1], in [3], in [4], in [5], in test [6] and in test [7] was greater than 100 µM throughout. For the same molecule, the TGI in test [8] was greater than 100 µM.

As for `CC(C)N(C(=O)C12C3C4C1C1C4(C#N)C3C12C#N)C(C)C` (centres undefined), the TGI in test [1], in test [2], in [3], in test [4], in test [5] and in [6] was greater than 100 µM in each case. Besides, the TGI in test [7] and in test [8] was greater than 100 µM in each case.

Consider `O=[N+]([O-])c1cccc(C2=NN(c3ccccc3)C[N+](c3ccc(Br)cc3)=N2)c1`, for which the TGI in [1], in test [2], in [3], in [4], in test [5] and in [6] was greater than 100 µM in each case. Besides, the TGI in test [7] and in [8] was greater than 100 µM in each case.

The values above are taken from PubChem BioAssay (NCI).
